For data set [1] the following is noted: cited from earlier work.

In the case of `C=CC(=O)N1CCC[C@@H](n2nc(-c3ccc(Oc4ccccc4)cc3)c3c(N)ncnc32)C1` [ibrutinib, Ibrutinib], under “DCM”, the “solubility in dichloromethane (DCM)” value is listed as more than 300 mg/g. Besides, the aqueous solubility (water) was less than 2.5 mg/g. For the same compound, the pKa result in data set [1] was “about 3.74”.

(Values after patent US20230404922A1, “MICROSPHERE FORMULATIONS COMPRISING BTK INHIBITORS AND METHODS FOR MAKING AND USING THE SAME” (Oakwood Laboratories, LLC, priority 2021, published 2023).)
